The values below come from US20090227673A1, “Method and Composition for the Treatment of Parkinson's Disease” (priority 2006, published 2009).

Read-outs that look alike come from different tables or passages of the source.

As a reminder, the IC50 is the midpoint of a concentration-inhibition curve. A higher IC50 goes with lower potency.

The target of this assay is T1, human COMT (Homo sapiens, UniProt P21964).
T1 construct: from tissue; host or cells: human liver cytosol (preparations HL4C, HL9C, HL8C)
T1 sequence (P21964 1-221 isoform P21964-2): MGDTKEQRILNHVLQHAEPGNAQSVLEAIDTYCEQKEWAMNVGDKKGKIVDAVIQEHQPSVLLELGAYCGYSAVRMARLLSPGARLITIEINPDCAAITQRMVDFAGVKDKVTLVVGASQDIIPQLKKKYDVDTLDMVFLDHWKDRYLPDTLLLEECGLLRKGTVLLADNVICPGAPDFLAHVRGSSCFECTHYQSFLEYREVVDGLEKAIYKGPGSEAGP
Briefly: Inhibition of human liver COMT-mediated o-methylation of catecholamines (human liver cytosol, [3H-methyl]AdoMet). The class given is biochemical.

The mark [1] stands for this setting: 10 μM catecholamine substrate, 250 μM AdoMet, 0.25 mg/mL human liver cytosolic protein, 37° C., 10 min, pH 7.4.

On to `O=C(O)/C=C/c1ccc(O)c(O)c1` [caffeic acid], for which, under setting [1], the IC50 was in the range of 500 to 1000 nM. `O=c1c(O)c(-c2ccc(O)c(O)c2)oc2cc(O)cc(O)c12` [quercetin] had an IC50 under setting [1] of about 331 nM.

Take `O=C(/C=C/c1ccc(O)c(O)c1)O[C@@H]1C[C@](O)(C(=O)O)C[C@@H](O)[C@H]1O` [chlorogenic acid]: the 50% inhibitory concentration (IC50) under setting [1] is 500 to 1000 nM.

Compound `Oc1cc(O)c2c(c1)O[C@H](c1ccc(O)c(O)c1)[C@H](O)C2` [epicatechin] displayed a half-inhibitory concentration (IC50) under setting [1] of 500 to 1000 nM. In turn, `O=C(/C=C/c1ccc(O)c(O)c1)OCCc1ccccc1` [caffeic acid pheethyl ester, caffeic acid phenethyl ester] displayed a concentration for half-maximal inhibition (IC50) of 500 to 1000 nM.
